Assay results taken from patent publication US10975057B2, “6-aminopyridin-3-yl pyrazoles as modulators of RORgT” (Janssen Pharmaceutica NV, priority 2018, dated 2021).

Key:
[1] = system: IL-17 production by CD4 T cells; assay: cells; conditions: Homo sapiens, 72 h, read-out: Human Th17 Assay, IC50 (μM)
Experimental: The human Th17 assay tests the effect of RORγt modulatory compounds on IL-17 production by CD4 T cells under conditions which favor Th17 differentiation. Total CD4^+ T cells were isolated from the peripheral blood mononuclear cells (PBMC) of healthy donors using a CD4^+ T cell isolation kit II, following the manufacturer's instructions (Miltenyi Biotec). […] 50 μL of compound at titrated concentrations in DMSO were added into each well at final DMSO concentration at 0.2%. Cells were incubated for 1 hour, then 50 μL of Th17 cell differentiation medium was added to each well. The final concentrations of antibodies and cytokines (R&D Systems) in differentiation medium were: 3×10^6/mL anti-CD3/CD28 beads (prepared using human T cell activation/expansion kit, Miltenyi Biotec), 10 μg/mL anti-IL4, 10 μg/mL anti-IFNγ, 10 ng/mL IL1β, 10 ng/mL IL23, 50 ng/mL IL6, 3 ng/mL TGFβ and 20 U/mL IL2. Cells were cultured at 37° C. and 5% CO2 for 3 days. Supernatants were collected and the accumulated IL-17 in culture was measured by using MULTI-SPOT® Cytokine Plate following manufacture's instruction (Meso Scale Discovery). The plate was read using Sector Imager 6000, and IL-17 concentration was extrapolated from the standard curve. The IC50s were determined by GraphPad.

[2] = system: Th17-dependent learned helplessness; conditions: mice; cited from earlier work
[3] = system: obese diabetic mice; conditions: cited from earlier work

SMILES | IC50 [1] | also measured
CCn1nc(C(=O)NC[C@]2(O)CC[C@@H](S(C)(=O)=O)CC2)c(C)c1-c1cnc(NC(C)(C)CC(F)(F)F)cc1OC(F)F [Example 1, 5-(4-(Difluoromethoxy)-6-((4,4,4-trifluoro-2-methylbutan-2-yl)amino)pyridin-3-yl)-1-ethyl-N-(((1s,4s)-1-hydroxy-4-(methylsulfonyl)cyclohexyl)methyl)-4-methyl-1H-pyrazole-3-carboxamide] | 0.0066 µM | –
CCn1nc(C(=O)NC[C@]2(O)CC[C@@H](S(C)(=O)=O)CC2)c(Cl)c1-c1cnc(NC(C)(C)CC(F)(F)F)cc1OC(F)F [Example 15, 4-Chloro-5-(4-(difluoromethoxy)-6-((4,4,4-trifluoro-2-methylbutan-2-yl)amino)pyridin-3-yl)-1-ethyl-N-(((1s,4s)-1-hydroxy-4-(methylsulfonyl)cyclohexyl)methyl)-1H-pyrazole-3-carboxamide] | 0.0062 µM | –
CCn1nc(C(=O)NC[C@]2(O)CC[C@@H](S(C)(=O)=O)CC2)c(Cl)c1-c1cnc(NC(C)(C)CC(F)(F)F)cc1C(C)C [Example 16, 4-Chloro-1-ethyl-N-(((1s,4s)-1-hydroxy-4-(methylsulfonyl)cyclohexyl)methyl)-5-(4-isopropyl-6-((4,4,4-trifluoro-2-methylbutan-2-yl)amino)pyridin-3-yl)-1H-pyrazole-3-carboxamide] | 0.017 µM | –
CCc1cc(NC(C)(C)CC(F)(F)F)ncc1-c1c(Cl)c(C(=O)NC[C@]2(O)CC[C@@H](S(C)(=O)=O)CC2)nn1CC [Example 18, 4-Chloro-1-ethyl-5-(4-ethyl-6-((4,4,4-trifluoro-2-methylbutan-2-yl)amino)pyridin-3-yl)-N-(((1s,4s)-1-hydroxy-4-(methylsulfonyl)cyclohexyl)methyl)-1H-pyrazole-3-carboxamide] | 0.0041 µM | –
CCn1nc(C(=O)NC[C@]2(O)CC[C@@H](S(C)(=O)=O)CC2)c(Cl)c1-c1cnc(NC(C)(C)CC(F)(F)F)cc1OC [Example 79, 4-Chloro-1-ethyl-N-(((1s,4s)-1-hydroxy-4-(methylsulfonyl)cyclohexyl)methyl)-5-(4-methoxy-6-((4,4,4-trifluoro-2-methylbutan-2-yl)amino)pyridin-3-yl)-1H-pyrazole-3-carboxamide] | 0.013 µM | –
CCn1nc(C(=O)NC[C@]2(O)CC[C@@H](S(C)(=O)=O)CC2)c(Cl)c1-c1cnc(NC(C)(C)CC(F)(F)F)cc1C(F)F [Example 97, 4-Chloro-5-(4-(difluoromethyl)-6-((4,4,4-trifluoro-2-methylbutan-2-yl)amino)pyridin-3-yl)-1-ethyl-N-(((1s,4s)-1-hydroxy-4-(methylsulfonyl)cyclohexyl)methyl)-1H-pyrazole-3-carboxamide] | 0.0033 µM | –
CCn1nc(C(=O)NC[C@H]2CC[C@H](S(C)(=O)=O)CC2)c(Cl)c1-c1cnc(N[C@H](C)C(F)(F)F)cc1OC [Example 98, 4-Chloro-1-ethyl-5-(4-methoxy-6-(((R)-1,1,1-trifluoropropan-2-yl)amino)pyridin-3-yl)-N-(((1r,4R)-4-(methylsulfonyl)cyclohexyl)methyl)-1H-pyrazole-3-carboxamide] | 0.14 µM | –
CC(=O)Nc1nc(C)c(S(=O)(=O)Nc2ccc(C(O)(C(F)(F)F)C(F)(F)F)cc2)s1 [SR1001] | – | Th17-dependent learned helplessness [2]: reduced Th17-dependent learned helplessness
CC(=O)N1CCN(Cc2ccc(-c3ccc(C(O)(C(F)(F)F)C(F)(F)F)cc3)cc2)CC1 [SR1555] | – | body weight [3]: reduced body weight; fat mass [3]: significant reduction in fat mass; food intake [3]: modest reduction in food intake; insulin sensitivity [3]: improved insulin sensitivity
